Test results published in ChEMBL document CHEMBL1201862, “PubChem BioAssay data set” (2004).
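Briefly, cells in 96-well plates were exposed to five compound concentrations for 48 h, and endpoints were estimated by linear interpolation. Here, GI50 denotes the concentration required for 50% inhibition of growth.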 Active and inactive are the calls of the source. Cut-off read from the data, not from the text of the source: active = GI50 up to about 1.1 µM and inactive = higher.

Columns and labels:
Experiment in all cases: NCI-60 cell line screen, 48 h
[1] = tested on: K562
[2] = tested on: SF-295
[3] = tested on: HOP-62
[4] = tested on: A549
[5] = tested on: NCI-H226
[6] = tested on: SN12C
[7] = tested on: NCI/ADR-RES
[8] = tested on: UO-31
[9] = tested on: SNB-19
[10] = tested on: MDA-N
[11] = tested on: HCC 2998
[12] = tested on: MDA-MB-435
[13] = tested on: OVCAR-5
[14] = tested on: T47D
[15] = tested on: UACC-257
[16] = tested on: Hs-578T
[17] = tested on: NCI-H460
[18] = tested on: RXF 393
[19] = tested on: SK-MEL-2
[20] = tested on: SK-MEL-5
[21] = tested on: CCRF-CEM
[22] = tested on: BT-549
[23] = tested on: OVCAR-4
[24] = tested on: MOLT-4
[25] = tested on: EKVX
[26] = tested on: PC-3
[27] = tested on: Malme-3M
[28] = tested on: HT-29
[29] = tested on: COLO 205
[30] = tested on: HOP-92
[31] = tested on: SK-OV-3
[32] = tested on: HCT-116
[33] = tested on: SW-620
[34] = tested on: CAKI-1
[35] = tested on: ACHN
[36] = tested on: SF-268
[37] = tested on: HCT-15
[38] = tested on: OVCAR-8
[39] = tested on: TK-10
[40] = tested on: NCI-H23
[41] = tested on: LOX IMVI
[42] = tested on: 786-0
[43] = tested on: MDA-MB-231
[44] = tested on: DU-145
[45] = tested on: KM12
[46] = tested on: NCI-H522
[47] = tested on: SK-MEL-28
[48] = tested on: IGROV-1
[49] = tested on: RPMI-8226
[50] = tested on: M14
[51] = tested on: A498
[52] = tested on: OVCAR-3
[53] = tested on: UACC-62
[54] = tested on: SNB-75
[55] = tested on: U-251
[56] = tested on: SF-539
[57] = tested on: MCF7
[58] = tested on: SR
[59] = tested on: HL-60

CC(C)(C)c1ccc(-c2nnc(-c3cc(C#N)cc(-c4nnc(-c5ccc(C(C)(C)C)cc5)o4)c3)o2)cc1
GI50 [1]: > 100 µM (inactive) | GI50 [2]: > 100 µM (inactive) | GI50 [3]: 60.1 µM (inactive) | GI50 [4]: > 100 µM (inactive) | GI50 [5]: > 100 µM (inactive) | GI50 [6]: > 100 µM (inactive) | GI50 [7]: > 100 µM (inactive) | GI50 [8]: > 100 µM (inactive) | GI50 [9]: > 100 µM (inactive) | GI50 [10]: > 100 µM (inactive) | GI50 [11]: > 100 µM (inactive) | GI50 [12]: > 100 µM (inactive) | GI50 [13]: > 100 µM (inactive) | GI50 [14]: > 100 µM (inactive) | GI50 [15]: > 100 µM (inactive) | GI50 [16]: 33 µM (inactive) | GI50 [17]: > 100 µM (inactive) | GI50 [18]: 0.0107 µM (active) | GI50 [19]: > 100 µM (inactive) | GI50 [20]: > 100 µM (inactive) | GI50 [21]: > 100 µM (inactive) | GI50 [22]: > 100 µM (inactive) | GI50 [23]: > 100 µM (inactive) | GI50 [24]: > 100 µM (inactive) | GI50 [25]: > 100 µM (inactive) | GI50 [26]: > 100 µM (inactive) | GI50 [27]: > 100 µM (inactive) | GI50 [28]: > 100 µM (inactive) | GI50 [29]: > 100 µM (inactive) | GI50 [30]: > 100 µM (inactive) | GI50 [31]: > 100 µM (inactive) | GI50 [32]: > 100 µM (inactive) | GI50 [33]: > 100 µM (inactive) | GI50 [34]: > 100 µM (inactive) | GI50 [35]: > 100 µM (inactive) | GI50 [36]: > 100 µM (inactive) | GI50 [37]: > 100 µM | GI50 [38]: > 100 µM (inactive) | GI50 [39]: > 100 µM (inactive) | GI50 [40]: > 100 µM (inactive) | GI50 [41]: > 100 µM (inactive) | GI50 [42]: 50.2 µM (inactive) | GI50 [43]: > 100 µM (inactive) | GI50 [44]: > 100 µM (inactive) | GI50 [45]: > 100 µM (inactive) | GI50 [46]: > 100 µM (inactive) | GI50 [47]: > 100 µM (inactive) | GI50 [48]: > 100 µM (inactive) | GI50 [49]: > 100 µM (inactive) | GI50 [50]: > 100 µM (inactive) | GI50 [51]: > 100 µM (inactive) | GI50 [52]: > 100 µM (inactive) | GI50 [53]: > 100 µM (inactive) | GI50 [54]: 88.9 µM (inactive) | GI50 [55]: > 100 µM (inactive)

O=C(NNC(=O)c1cc2ccccc2[nH]1)c1cc2ccccc2[nH]1
GI50 [1]: 80 µM (inactive) | GI50 [2]: > 100 µM (inactive) | GI50 [3]: > 100 µM (inactive) | GI50 [4]: > 100 µM (inactive) | GI50 [5]: > 100 µM (inactive) | GI50 [56]: > 100 µM (inactive) | GI50 [6]: > 100 µM (inactive) | GI50 [7]: > 100 µM (inactive) | GI50 [8]: > 100 µM (inactive) | GI50 [9]: > 100 µM (inactive) | GI50 [10]: > 100 µM (inactive) | GI50 [12]: > 100 µM (inactive) | GI50 [13]: > 100 µM (inactive) | GI50 [57]: > 100 µM (inactive) | GI50 [58]: 66.5 µM (inactive) | GI50 [14]: > 100 µM (inactive) | GI50 [15]: > 100 µM (inactive) | GI50 [16]: > 100 µM (inactive) | GI50 [17]: > 100 µM (inactive) | GI50 [18]: > 100 µM (inactive) | GI50 [19]: > 100 µM (inactive) | GI50 [20]: > 100 µM (inactive) | GI50 [21]: > 100 µM (inactive) | GI50 [22]: > 100 µM (inactive) | GI50 [23]: > 100 µM (inactive) | GI50 [24]: > 100 µM (inactive) | GI50 [25]: > 100 µM (inactive) | GI50 [26]: > 100 µM (inactive) | GI50 [59]: 95.7 µM (inactive) | GI50 [27]: > 100 µM (inactive) | GI50 [28]: > 100 µM (inactive) | GI50 [29]: > 100 µM (inactive) | GI50 [31]: > 100 µM (inactive) | GI50 [32]: > 100 µM (inactive) | GI50 [33]: > 100 µM (inactive) | GI50 [34]: > 100 µM (inactive) | GI50 [36]: > 100 µM (inactive) | GI50 [37]: > 100 µM | GI50 [38]: > 100 µM (inactive) | GI50 [39]: > 100 µM (inactive) | GI50 [41]: > 100 µM (inactive) | GI50 [42]: > 100 µM (inactive) | GI50 [43]: > 100 µM (inactive) | GI50 [44]: > 100 µM (inactive) | GI50 [45]: > 100 µM (inactive) | GI50 [46]: > 100 µM (inactive) | GI50 [47]: > 100 µM (inactive) | GI50 [48]: > 100 µM (inactive) | GI50 [49]: > 100 µM (inactive) | GI50 [50]: > 100 µM (inactive) | GI50 [51]: > 100 µM (inactive) | GI50 [52]: > 100 µM (inactive) | GI50 [53]: > 100 µM (inactive) | GI50 [54]: > 100 µM (inactive) | GI50 [55]: > 100 µM (inactive)
